These results are taken from patent publication US20070041899A1, “Radiolabelled substrates” (priority 2003, published 2007).

Data set [1] concerns the target P-glycoprotein (Sus scrofa, UniProt K7GMM7). The settings on record: pig. An excerpt:
(§1) The animals (pig, Yorkshire Iandrace, 37.5 kg, n=2) were scanned under terminal aneasthesia (ketamine induced isoflurane aneasthesia) on different days. For both animals an arterial cannula was inserted in one of the femoral arteries.

Data set [2] can be described thus: Rate of metabolism of [^11C]loperamide (arterial blood sampling) in pig.
Description: as §1

Structures are written as SMILES.

P-glycoprotein, sequence (K7GMM7 1-1248): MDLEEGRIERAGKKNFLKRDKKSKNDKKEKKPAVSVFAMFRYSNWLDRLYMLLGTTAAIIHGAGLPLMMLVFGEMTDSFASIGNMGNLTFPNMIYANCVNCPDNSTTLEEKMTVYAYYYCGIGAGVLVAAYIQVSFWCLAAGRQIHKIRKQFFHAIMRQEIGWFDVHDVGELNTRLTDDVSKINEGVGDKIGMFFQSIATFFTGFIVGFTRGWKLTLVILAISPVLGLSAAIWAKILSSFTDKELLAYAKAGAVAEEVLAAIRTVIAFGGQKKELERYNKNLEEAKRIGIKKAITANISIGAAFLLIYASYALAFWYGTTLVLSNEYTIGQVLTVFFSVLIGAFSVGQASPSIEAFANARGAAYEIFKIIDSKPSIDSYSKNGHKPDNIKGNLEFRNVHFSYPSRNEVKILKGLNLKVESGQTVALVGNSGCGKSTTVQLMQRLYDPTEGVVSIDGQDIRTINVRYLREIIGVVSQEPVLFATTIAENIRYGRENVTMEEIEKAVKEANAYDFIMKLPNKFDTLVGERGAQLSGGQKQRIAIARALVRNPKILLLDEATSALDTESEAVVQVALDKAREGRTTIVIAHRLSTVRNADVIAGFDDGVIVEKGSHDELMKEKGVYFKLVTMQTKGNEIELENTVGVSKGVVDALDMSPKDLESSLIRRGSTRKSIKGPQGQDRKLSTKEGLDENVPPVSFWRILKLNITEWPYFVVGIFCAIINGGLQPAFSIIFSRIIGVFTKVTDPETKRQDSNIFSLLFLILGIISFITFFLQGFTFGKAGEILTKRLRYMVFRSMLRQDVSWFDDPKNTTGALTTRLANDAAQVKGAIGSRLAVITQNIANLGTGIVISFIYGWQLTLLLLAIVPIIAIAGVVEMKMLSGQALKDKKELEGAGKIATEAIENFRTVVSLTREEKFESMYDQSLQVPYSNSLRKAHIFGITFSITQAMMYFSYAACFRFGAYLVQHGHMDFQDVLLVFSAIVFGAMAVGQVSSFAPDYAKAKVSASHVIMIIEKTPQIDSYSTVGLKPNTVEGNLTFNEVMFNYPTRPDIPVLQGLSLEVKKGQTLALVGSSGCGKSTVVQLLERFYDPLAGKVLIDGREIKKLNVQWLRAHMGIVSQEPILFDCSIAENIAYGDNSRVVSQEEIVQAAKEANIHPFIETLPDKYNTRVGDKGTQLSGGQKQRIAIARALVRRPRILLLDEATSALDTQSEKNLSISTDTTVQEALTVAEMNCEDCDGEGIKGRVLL

With `CN([11CH3])C(=O)C(CCN1CCC(O)(c2ccc(Cl)cc2)CC1)(c1ccccc1)c1ccccc1` [[^11C]loperamide, ^11C—N-methyl-(4-chlorophenyl)+hydroxy-N,N-dimethyl-alpha,alpha-diphenyl-1-piperidinebutyramide], the “Maximum increase of CNS penetration for the brain as a whole” value in data set [1] (at a dose of 40-50 mg/kg Cyclosporin A i.v. 30 min prior) was found to be 7 fold. In addition, the “% injected dose/L (CNS penetration)” value in data set [1] (i.v. 1 min bolus, baseline conditions, PET) is “below 1%”. In addition, in data set [1] (i.v. various doses of cyclosporin A 30 min prior to injection), the “radioactive signal in the brain as measured with PET scanning” value is given as “dose dependent increase”. For the same molecule, the figures for the “rate of metabolism: parent at 60 min post administration” value in data set [2] (at doses of CsA >10 mg/kg) and in data set [2] (without CsA >10 mg/kg (before decrease)) were “approx. 80 % parent” and “approx. 50 % parent”, respectively.
